Measured values: US20150216182A1, “COMPOSITIONS AND METHODS OF THE ATTRACTION AND REPULSION OF INSECTS” (Olfactor Laboratories, Inc., priority 2012, published 2015)
Entries after “also recorded” stand apart in the source; their conditions may differ. Counter-ions that a name gives are not always drawn. Like-named read-outs stand apart in the source and are kept apart here.

Columns and labels:
[1] = tested on: bed bugs (Cimex lectularius); assay: bed bug repellency assay; type: in vivo; settings: compound or combination on filter paper harborage, ten bed bugs
Method in brief: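 Ten Cimex lectularius per talc-lined petri dish chose between folded filter-paper harborages treated with isopropyl alcohol alone or compound in isopropyl alcohol […], dried before use. Bugs moved freely 5 min; occupancy beneath each tent recorded, with a solvent-only pairing as control.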

larvae = assay: larvicidal activity assay; type: in vivo; settings: for pest or weed control at 0.25 %: read-out: % Lethality with 0.25% compound conc.; for pest or weed control at 100 ppm: read-out: % Lethality at 100 ppm
Procedure: A 6-well plate (Corning Life Sciences, Tewksbury, Mass.) is used to test a compound's larvicidal activity. […] After a 24 hour exposure, the number of dead larvae are counted and recorded.
The results are presented in Table 17 as % lethality (the number of dead larvae divided by the total number of larvae).

cpA neurons [2] = assay: extracellular single-sensillum electrophysiology: activation of cpA neuronal activity; settings: for Class: Table 6, single compounds, increase over baseline cpA neuronal activity; for Comp B Class: component B tested individually; for Class B (activator class of the individual component): Table 15, single component alone, Mod Actv
female mosquitoes [3] = assay: whole plant or invertebrate; settings: 2 h; for mortality at 200 µg/mL: read-out: % mortality with 0.2 mg/ml; for mortality at 2000 µg/mL: read-out: % mortality with 2 mg/ml
Aedes aegypti mosquitoes = assay: netsphere assay; type: in vivo; settings: baited BG-Sentinel trap, overnight collection; FIG. 3
Procedure: The netsphere assay was conducted in a semi-field containment area. The containment area was 1,000 square feet in size and environmental cues such as temperature, humidity, lighting and airflow were controlled to replicate conditions that Aedes aegypti mosquitoes would encounter in the wild. The containment area was conditioned for 2 hours prior to experimentation to allow for equalization of environmental conditions. Fifty female and five male mosquitoes were then released into the chamber and given one hour to acclimate to the environment. Following this, a BG-Sentinel trap (Biogents AG, Regensburg, Germany) was baited with either cyclopentanone, 2-pentanone or 2,4-lutidine and placed in the chamber in the presence of a non-baited BG-Sentinel (as a negative control for trap attraction). The collection was allowed to proceed overnight during which lighting conditions in the chamber were set to mimic those of starlight. The following day, mosquitoes caught in the trap were frozen at −20° C. and counted. These counts were compared to control experiments where CO2 from a tank, at a flow rate of 250 ml/min, was used as bait.

bed bugs = assay: bed bug luring assay; type: in vivo; settings: cottonball with 100 microliters solution, total 100 mg compound(s), 10 bed bugs, overnight
Procedure: Assays were conducted to measure the ability of compounds and compound combinations to attract bed bugs. A testing arena habitat comprising a small plastic container was placed inside of a larger, secondary container. The top half inch was removed from two bathroom sized solo cups and each cup was placed on opposite sides of the testing arena habitat, one inch away from the wall. Each outer part of the cup was textured using sandpaper, as bed bugs cannot climb smooth surfaces. A paper towel was used to line the floor of the testing arena habitat. The top, removed portion of one of the solo cups was placed mouth side down in the center of the arena. In one of the cups, a cottonball was placed and treated with 100 microliters of compound or compound combination solution [comprising a total of 100 mg of compound(s).] 10 bed bugs were placed within the center cut off cup top and the testing arena habitat was covered and placed within a dark, climate controlled room overnight. The next day, the number of bed bugs that crawled into the baited cup were recorded and the % attractancy was calculated as the percentage of bugs that crawled into the baited cup as compared to the total number of bed bugs. In the Table, “Att” refers to attractancy and “Cmpd” refers to compound.

Aedes aegypti = assay: landing assay; type: in vivo; settings: mesh treated with 1% in acetone, FIG. 2; for number of landings: 5 minute time course
Description: Behavior assays were developed to aid in the evaluation of compounds and compositions of the present invention. These assays include the landing assay and the netsphere assay. These assays were utilized to determine the effectiveness of said compounds and compositions with regard to attracting or repelling mosquitoes of the species Aedes aegypti. Due to the highly conserved nature of the carbon dioxide receptor across the order Diptera, the results obtained for Aedes aegypti are likely to be intuitive with regard to other members of the mosquito family Culicidae as well as with regard to other dipteran family members.
The landing assay is an assay used to test for attraction toward human skin. A human gloved hand with an opening cutout protected by 2 layers of mesh was inserted into a 12×12×12 inch cage of female mosquitoes. The first layer of mesh was used to protect the human from chemical contact as well as mosquito contact. A second layer of mesh was treated with a chemical compound or composition that had been dissolved at a concentration of 1% in acetone and allowed to dry on said mesh for three minutes. This second layer of mesh was placed on top of the first mesh layer. The two mesh layers were separated by outer magnetic strips to hold the layers in place on the glove. This experimental design allows the test subjects, starved female mosquitoes, to be exposed to human skin odors as well as the compound or composition concurrently. The cage contained 30 female and 3 male mosquitoes. The landing of mosquitoes on the treated surface was videotaped over a 5 minute time course and the number of landings during that time period was recorded. Mesh treated with acetone alone was used as a negative control. This experiment was done in triplicate for each compound or composition tested. The results from one such experiment are pictured in FIG. 2.

cpB and cpC neurons = assay: extracellular single-sensillum electrophysiology: beta activators; type: in vivo, Aedes aegypti; settings: for Class A (beta activator, individual component): Table 15, single component alone, Beta Actv; for beta activator (stimulates cpB and cpC neuronal activity): single compound
Description: Three types of CO2-responsive neurons reside in the maxillary palp of mosquitoes. These include cpA, cpB and cpC neurons. […] These neurons produce spikes with much lower amplitude than those produced by cpA neurons. Although the activity from cpB and cpC neurons cannot easily be distinguished from one another, their collective activity can be distinguished from cpA neurons due to their characteristic spikes. This is useful in the identification of compounds and compositions that only activate or inhibit cpB and cpC neurons or compounds and compositions that activate or inhibit both.
Carbon dioxide receptor neurons are housed within the basiconic sensilla of the mosquito maxillary palp. While activity from cpA neurons produces the largest amplitude spike, cpB and cpC neurons present in this region are also responsive to skin odors. Activity from these neurons can also be detected through the electrophysiological methods described in Example 1.
Although the activity from cpB and cpC neurons cannot easily be distinguished from one another, their collective activity can be distinguished from cpA neurons due to their production of spikes with much lower amplitude than those produced by cpA neurons.

cpA neurons [4] = assay: extracellular single-sensillum electrophysiology: inhibition of CO2-responsive (cpA) neuronal activity; settings: Table 10; single compounds; percent reduction in cpA activity compared to baseline
female mosquitoes [5] = settings: in vivo
[6] = 0.25% compound, 24 hour exposure, dead larvae / total larvae
[7] = 100 ppm compound, 24 hour exposure, dead larvae / total larvae

| Compound | % Rep (bed bug repellency) [1] | pest or weed control at 0.25 % (larvae; [6]) | pest or weed control at 100 ppm (larvae; [7]) | Class (cpA neurons [2]) | mortality at 200 µg/mL (female mosquitoes [3]) | mortality at 2000 µg/mL (female mosquitoes [3]) | % Att (bed bug attractancy) (bed bugs) | also measured |
| --- | --- | --- | --- | --- | --- | --- | --- | --- |
| Cc1ccnc(C)c1 [OLI0001, 2,4-lutidine] | 39% | 100% | 0% | Strong Activator (strong activators yield an increase in activity that is >60 spk/sec over baseline neuronal activity) | 0% | 0% |  | effect on CO2-receptor activity (FIG. 1) (cpA neurons [2]; 1% concentration in paraffin oil): activator; activator class of single compound (cpA neurons [2]): strong activator (spike rate of 60-100 spk/sec over the baseline activity of the neuron); behaviour in netsphere assay (attractant or repellent) (Aedes aegypti mosquitoes): acted as a repellent |
| COc1cnccn1 [OLI0003, 2-methoxypyrazine] | 22% | 100% | 0% | Strong Activator (strong activators yield an increase in activity that is >60 spk/sec over baseline neuronal activity) | 0% | 0% | 30% |  |
| O=C1CCCC1 [OLI0008, cyclopentanone] |  | 85% | 0% | Strong Activator (strong activators yield an increase in activity that is >60 spk/sec over baseline neuronal activity) | 0% | 0% | 50% | behaviour in netsphere assay (attractant or repellent) (Aedes aegypti mosquitoes): act as attractants; also recorded: attract mosquitoes; number of landings (Aedes aegypti): 39 landings; behaviour in landing assay (lure or repellent) (Aedes aegypti): act as lures |
| CCCOC=O [OLI0063, propyl formate] |  |  |  | Mild Activator (mild activators yield an increase in neuronal activity that is between 20 and 40 spk/sec over baseline neuronal activity) | 0% | 0% | 30% | pest or weed control at 100 ppm (larvae; 24 h): 0%; pest or weed control at 0.25 % (larvae; 24 h): 0%; Comp B Class (cpA neurons [2]; Table 9): Mild |
| CCC(=O)OCCC(C)C [OLI0099, isoamyl propionate] | 17% | 0% | 0% |  | 0% | 0% | 10% | Class A (beta activator, individual component) (cpB and cpC neurons): Beta; beta activator (stimulates cpB and cpC neuronal activity) (cpB and cpC neurons): beta activators |
| COc1nccnc1C [OLI0070, 2-methoxy-3-methylpyrazine] |  | 100% | 0% |  | 0% | 0% | 10% | Class (cpA neurons [4]): Strong Inhibitor (strong inhibitors (reducing activity >60%)) |
| CSC(C)=O [OLI0025, methanethiol acetate] |  |  |  | Moderate Activator (Moderate activators yield an increase in neuronal activity that is between 40 and 60 spk/sec over baseline neuronal activity) |  |  | 20% | % Lethality with 0.25% compound conc. (larvae; [6]): 100% lethal; % Lethality at 100 ppm (larvae; [7]): 0% lethal; % mortality with 0.2 mg/ml (female mosquitoes [5]): 0%; % mortality with 2 mg/ml (female mosquitoes [5]): 0%; Comp B Class (cpA neurons [2]; Table 9): Mod; Class B (activator class of the individual component) (cpA neurons [2]): Mod |
| COC(=O)CCC(C)=O [OLI0027, methyl levulinate] | 20% | 50% | 0% | Moderate Activator (Moderate activators yield an increase in neuronal activity that is between 40 and 60 spk/sec over baseline neuronal activity) | 0% | 0% | 10% | Class A (beta activator, individual component) (cpB and cpC neurons): Beta; beta activator (stimulates cpB and cpC neuronal activity) (cpB and cpC neurons): beta activators; Comp A Class (cpA neurons [2]; Table 9, component A tested individually): Mod; activator class of single compound (cpA neurons [2]): moderate cpA activator |
| C/C=C/C(=O)OC [OLI0026, methyl crotonate] | 38% | 87.5% | 0% | Moderate Activator (Moderate activators yield an increase in neuronal activity that is between 40 and 60 spk/sec over baseline neuronal activity) | 0% | 0% | 20% | Comp B Class (cpA neurons [2]; Table 9): Mod; Class B (activator class of the individual component) (cpA neurons [2]): Mod |
| CCCCCCOC=O [OLI0097, hexyl formate] | 44% |  |  |  | 0% | 0% | 30% | Class A (beta activator, individual component) (cpB and cpC neurons): Beta; beta activator (stimulates cpB and cpC neuronal activity) (cpB and cpC neurons): beta activators; pest or weed control at 100 ppm (larvae; 24 h): 0%; pest or weed control at 0.25 % (larvae; 24 h): 5% |
| CCc1cnccn1 [OLI0002, 2-ethylpyrazine] | 49% | 50% | 0% | Strong Activator (strong activators yield an increase in activity that is >60 spk/sec over baseline neuronal activity) | 0% | 0% |  | activator class of single compound (cpA neurons [2]): activator; number of landings (Aedes aegypti): 12 landings; behaviour in landing assay (lure or repellent) (Aedes aegypti): repellent |
